Measured values from the supplement of paper PMC8960247.
Structures can show the parent of a compound that is named as a salt. ± gives the standard error.

Key:
621-102 (TSC2-deficient) = experiment: relative viability vs DMSO; higher = less cytotoxic; settings: serum: 10% FBS, 72 h
621-103 (TSC2-rescued) = experiment: as above; settings: serum: 10% FBS, 72 h
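Also: immortalized renal angiomyolipoma cells stably carrying empty vector or TSC2, dosed in 384-well plates in DMEM, viability normalized to vehicle-treated wells within each plate.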

Row | Compound | relative viability (621-102 (TSC2-deficient); 0.0001 µM) | relative viability (621-102 (TSC2-deficient); 0.001 µM) | relative viability (621-102 (TSC2-deficient); 0.01 µM) | relative viability (621-102 (TSC2-deficient); 0.1 µM) | relative viability (621-102 (TSC2-deficient); 1 µM) | relative viability (621-102 (TSC2-deficient); 10 µM) | relative viability (621-103 (TSC2-rescued); 0.0001 µM) | relative viability (621-103 (TSC2-rescued); 0.001 µM) | relative viability (621-103 (TSC2-rescued); 0.01 µM) | relative viability (621-103 (TSC2-rescued); 0.1 µM) | relative viability (621-103 (TSC2-rescued); 1 µM) | relative viability (621-103 (TSC2-rescued); 10 µM)
1 | CC(C)NCC(O)c1ccc(NS(C)(=O)=O)cc1 (stereo unspecified) [Sotalol HCl] | 79.7 ± 5.2% | 99.6 ± 3.7% | 108.1 ± 1% | 115 ± 6.1% | 114 ± 2.9% | 107 ± 6.9% | 92 ± 1.4% | 115 ± 2% | 113 ± 1.3% | 118 ± 5.8% | 118 ± 1.5% | 108 ± 1.7%
2 | Cc1cn([C@H]2C=C[C@@H](CO)O2)c(=O)[nH]c1=O [Stavudine] | 75.4 ± 3.2% | 76.7 ± 0.81% | 81.206 ± 0.072% | 89.1 ± 8.5% | 83.4 ± 2.3% | 71.2 ± 1.9% | 105 ± 1.2% | 99.6 ± 5.1% | 110 ± 5.4% | 109 ± 5.7% | 93.2 ± 2.2% | 91.2 ± 1.3%
3 | Cc1cc(NS(=O)(=O)c2ccc(N)cc2)no1 [Sulfamethoxazole] | 105 ± 5.2% | 104 ± 3.8% | 104.66 ± 0.095% | 97.02 ± 0.95% | 101.8 ± 0.93% | 97.2 ± 2% | 96.09 ± 0.3% | 102 ± 2.2% | 101 ± 3.9% | 101 ± 4.7% | 99.4 ± 6% | 101 ± 1.7%
4 | Nc1ccc(S(N)(=O)=O)cc1 [Sulfanilamide] | 94.3 ± 1.1% | 108 ± 5.2% | 97.7 ± 2.6% | 99 ± 1.8% | 99.8 ± 2.5% | 92.9 ± 1.2% | 102 ± 3.3% | 102 ± 0.77% | 104 ± 1.8% | 106 ± 1.9% | 101 ± 2.4% | 96.1 ± 2.9%
5 | CCN(CC)CCNC(=O)c1c(C)[nH]c(/C=C2\C(=O)Nc3ccc(F)cc32)c1C [Sunitinib Malate] | 98.8 ± 6.5% | 110 ± 7% | 107 ± 5.9% | 110 ± 3.6% | 125 ± 4.1% | 71 ± 1.9% | 102 ± 2.3% | 106 ± 1.5% | 105.8 ± 0.65% | 105 ± 1.8% | 103.2 ± 0.44% | 30.5 ± 0.91%
6 | Cn1c(=O)c(F)c(Nc2ccc(I)cc2F)c2c(=O)n(C[C@@H](O)CO)cnc21 [TAK-733] | 101 ± 5.3% | 107 ± 2.2% | 101 ± 4.8% | 95.22 ± 0.047% | 67.4 ± 2.4% | 54.3 ± 0.28% | 97.8 ± 5.4% | 84.4 ± 2.9% | 83.5 ± 6% | 84.4 ± 7% | 60.7 ± 6.7% | 51.7 ± 4.3%
7 | Cc1cc(OCCCS(C)(=O)=O)cc(C)c1-c1cccc(COc2ccc3c(c2)OC[C@H]3CC(=O)O)c1 [TAK-875] | 61.2 ± 7.8% | 61.5 ± 4% | 75.9 ± 5.2% | 80.9 ± 4.5% | 84.24 ± 0.76% | 84.2 ± 5.3% | 103 ± 3% | 102 ± 1.9% | 103.7 ± 0.45% | 102.5 ± 0.61% | 103 ± 3.5% | 95.16 ± 0.36%
8 | Nc1nc(N)c2nc(-c3cccc(O)c3)c(-c3cccc(O)c3)nc2n1 [TG100-115] | 98.9 ± 7.9% | 105 ± 4.8% | 110.59 ± 0.023% | 112 ± 1.9% | 111 ± 5.8% | 95.6 ± 3.2% | 99.62 ± 0.33% | 99.8 ± 1.2% | 106 ± 4.6% | 99.3 ± 0.84% | 99.5 ± 1.8% | 100.3 ± 1%
9 | Cc1cc(C(C)Nc2ccccc2)c2nc(N3CCOCC3)cc(=O)n2c1 (stereo unspecified) [TGX-221] | 94.1 ± 1.7% | 106 ± 7.4% | 114 ± 3.3% | 112 ± 3.6% | 114 ± 4% | 101 ± 1.8% | 98.3 ± 0.45% | 98.8 ± 0.21% | 97.7 ± 2% | 98.8 ± 1.6% | 99.4 ± 1.5% | 102 ± 1.8%
10 | Cc1[nH]c(/C=C2\C(=O)Nc3ccccc32)c(C)c1CCC(=O)O [TSU-68] | 94 ± 1.4% | 106 ± 3.3% | 119 ± 3.6% | 110 ± 2.1% | 91.7 ± 3.8% | 95.8 ± 2.4% | 101 ± 1.9% | 103 ± 1.2% | 101 ± 2.4% | 102 ± 1.7% | 102 ± 1.9% | 95.7 ± 1.1%
11 | CN1CC(=O)N2[C@H](c3ccc4c(c3)OCO4)c3[nH]c4ccccc4c3C[C@@H]2C1=O [Tadalafil (Cialis)] | 107.45 ± 0.0089% | 97.8 ± 3.3% | 107 ± 4.8% | 101 ± 2% | 94.3 ± 2.4% | 107.7 ± 0.44% | 91.2 ± 1.9% | 92.87 ± 0.31% | 102.7 ± 0.92% | 92.11 ± 0.35% | 96.51 ± 0.38% | 101 ± 2%
12 | CC/C(=C(\c1ccccc1)c1ccc(OCCN(C)C)cc1)c1ccccc1 [Tamoxifen Citrate] | 102.7 ± 0.75% | 98.8 ± 1.8% | 111 ± 2.6% | 98.76 ± 0.6% | 100.8 ± 1% | 80.9 ± 5.2% | 101 ± 3.6% | 102 ± 3.1% | 104 ± 5.2% | 101 ± 2.4% | 107 ± 3.5% | 48.1 ± 2.6%
13 | CCOc1ccccc1OCCN[C@H](C)Cc1ccc(OC)c(S(N)(=O)=O)c1 [Tamsulosin HCl] | 104 ± 3.8% | 99.7 ± 2.3% | 99.5 ± 2.2% | 102 ± 5% | 97 ± 3.9% | 98.4 ± 4% | 107 ± 5.6% | 104 ± 4.7% | 105 ± 2% | 103 ± 2.4% | 96.4 ± 7% | 98.4 ± 2.6%
14 | COc1cc2c(N3CCN(C(=O)Nc4ccc(OC(C)C)cc4)CC3)ncnc2cc1OCCCN1CCCCC1 [Tandutinib (MLN518)] | 107 ± 3.1% | 97.9 ± 4.1% | 99.7 ± 0.23% | 96.6 ± 3% | 98.2 ± 3.4% | 80 ± 2.4% | 99.4 ± 1.1% | 99.87 ± 0.96% | 101 ± 2.1% | 101 ± 1.9% | 99.31 ± 0.29% | 83.4 ± 1.2%
15 | CNC(=O)c1cc(COc2nnc(Nc3ccc(Cl)cc3)c3ccoc23)ccn1 [Telatinib (BAY57-9352)] | 94.64 ± 0.47% | 95.1 ± 4.9% | 83.7 ± 2.7% | 94.8 ± 1.5% | 84.3 ± 1.3% | 48.4 ± 3.9% | 114 ± 2.4% | 103.1 ± 0.34% | 100 ± 2.4% | 108 ± 2% | 104 ± 1.8% | 55.8 ± 4.5%
16 | CCCc1nc2c(C)cc(-c3nc4ccccc4n3C)cc2n1Cc1ccc(-c2ccccc2C(=O)O)cc1 [Telmisartan] | 104 ± 2.5% | 104 ± 1.6% | 103 ± 2.6% | 105 ± 1.2% | 112 ± 6.6% | 113.2 ± 0.47% | 101 ± 2.7% | 97.8 ± 4.9% | 95.37 ± 0.79% | 103.34 ± 0.025% | 101 ± 4.2% | 107 ± 2.6%
17 | C[C@H](Cn1cnc2c(N)ncnc21)OCP(=O)(O)O [Tenofovir] | 66.9 ± 0.97% | 73.2 ± 1.9% | 75.6 ± 11% | 71.7 ± 5% | 70.8 ± 6.7% | 60.2 ± 5.8% | 102 ± 5.5% | 102 ± 1.9% | 103 ± 5.3% | 109 ± 4.2% | 94 ± 7.9% | 92.6 ± 4.3%
18 | CN(C/C=C/C#CC(C)(C)C)Cc1cccc2ccccc12 [Terbinafine HCl] | 96.9 ± 2.1% | 97 ± 1.5% | 92 ± 0.96% | 94.1 ± 2.5% | 101 ± 3% | 91.3 ± 3.5% | 101 ± 3.3% | 99.3 ± 5.4% | 104 ± 2.1% | 101 ± 1.3% | 101 ± 1.3% | 97.22 ± 0.58%
19 | CCC(=O)O[C@H]1CC[C@H]2[C@@H]3CCC4=CC(=O)CC[C@]4(C)[C@H]3CC[C@]12C [Testosterone propionate (Agovirin)] | 104 ± 2.2% | 104 ± 1.2% | 98.7 ± 3.7% | 104 ± 1.1% | 104 ± 2.2% | 103 ± 4.2% | 109 ± 3.1% | 105 ± 1.9% | 104 ± 1.2% | 98.7 ± 2.8% | 102.1 ± 0.64% | 87.6 ± 1.6%
20 | CCCCNc1ccc(C(=O)OCCN(C)C)cc1 [Tetracaine HCl] | 113 ± 2.6% | 105 ± 2.3% | 100 ± 3.7% | 102 ± 3.7% | 102 ± 3.2% | 105 ± 1.1% | 72.9 ± 4.8% | 91.42 ± 0.14% | 90.6 ± 5.6% | 103 ± 6.7% | 78.5 ± 6.8% | 74.1 ± 2.6%
21 | C[N+]1(C)[C@@H]2C[C@@H](OC(=O)C(O)(c3cccs3)c3cccs3)C[C@H]1[C@@H]1O[C@@H]12 [Tiotropium Bromide hydrate] | 119 ± 6% | 110 ± 3.6% | 116.3 ± 0.16% | 112.5 ± 0.9% | 116 ± 1.3% | 117.1 ± 0.39% | 77.6 ± 0.97% | 97.55 ± 0.64% | 105.9 ± 0.43% | 100 ± 2.9% | 103 ± 3.4% | 103 ± 2.6%
22 | C[N+]1(C)[C@@H]2C[C@@H](OC(=O)C(O)(c3cccs3)c3cccs3)C[C@H]1[C@@H]1O[C@@H]12 [Tiotropium] | 119 ± 3.2% | 114 ± 4.8% | 115 ± 4.8% | 111 ± 2.6% | 117 ± 4.4% | 112.5 ± 1.1% | 82.2 ± 1.7% | 96 ± 3.8% | 103.3 ± 0.58% | 96.8 ± 4.6% | 102.87 ± 0.086% | 100.4 ± 0.9%
23 | O=c1oc2cc(O)ccc2s1 [Tioxolone] | 103 ± 7.6% | 105.7 ± 0.97% | 105 ± 4% | 94.8 ± 1.4% | 104 ± 2.6% | 99.31 ± 0.92% | 71.1 ± 7.9% | 80 ± 6.3% | 75.42 ± 0.21% | 80.9 ± 4.5% | 71.5 ± 8.5% | 60.9 ± 5%
24 | O=c1n(CCCN2CCN(c3cccc(Cl)c3)CC2)nc2ccccn12 [Trazodone HCl] | 103 ± 1.2% | 103 ± 1.8% | 105 ± 2.1% | 99.8 ± 4.6% | 107 ± 1.8% | 103 ± 4.7% | 77.1 ± 6.5% | 84.3 ± 2.8% | 84.8 ± 4% | 86.6 ± 3.6% | 68.2 ± 3.2% | 63.7 ± 7.5%
25 | CC(/C=C/C(=O)NO)=C\[C@@H](C)C(=O)c1ccc(N(C)C)cc1 [Trichostatin A] | 113.6 ± 0.35% | 117 ± 1.7% | 117.6 ± 0.42% | 104.3 ± 0.83% | 110 ± 1.2% | 74.9 ± 3.8% | 100.8 ± 0.21% | 101 ± 1.4% | 98.31 ± 0.47% | 99.71 ± 0.22% | 96.9 ± 1.4% | 44.8 ± 2.1%
26 | C[C@]12CC[C@H]3[C@@H](CC[C@@]45O[C@@H]4C(O)=C(C#N)C[C@]35C)[C@@H]1CC[C@@H]2O [Trilostane] | 104 ± 4.1% | 94 ± 6% | 93.7 ± 0.94% | 101 ± 2.1% | 98.3 ± 5.8% | 99.2 ± 5% | 102 ± 1.8% | 106.6 ± 0.25% | 106.2 ± 0.28% | 101 ± 2.7% | 102.8 ± 0.34% | 100 ± 1.9%
27 | CN1[C@@H]2CC[C@H]1C[C@@H](OC(=O)c1c[nH]c3ccccc13)C2 [Tropisetron HCl] | 82.2 ± 3.4% | 94 ± 3.9% | 99.6 ± 3.9% | 106 ± 2% | 99.47 ± 0.15% | 93.3 ± 1.3% | 89.7 ± 3% | 96.7 ± 2.6% | 102 ± 2.4% | 95.48 ± 0.32% | 106.6 ± 0.86% | 84.7 ± 1.7%
28 | O=C(O[C@H]1C[C@H]2CC[C@@H](C1)[N+]21CCCC1)C(O)(c1ccccc1)c1ccccc1 [Trospium chloride (Sanctura)] | 116 ± 2.6% | 99.2 ± 1.8% | 110 ± 5.9% | 95.4 ± 6.1% | 112 ± 5% | 110 ± 3.5% | 82.71 ± 0.81% | 91.5 ± 2.9% | 93.15 ± 0.86% | 102 ± 3.1% | 98.6 ± 5.3% | 92.1 ± 4.1%
